US20210161997A1, “TREATING DISEASES VIA TARGETED MODULATION OF GENE SIGNALING NETWORKS” (Camp4 Therapeutics Corporation, priority 2018, published 2021)

Experiments:
SERPINC1 = assay: RNA-seq of SERPINC1 expression in compound-treated primary human hepatocytes; type: cell-based; conditions: significance FPKM ≥1, log 2(fold change) ≥0.5, q-value ≤0.05
Protocol: Human hepatocytes were obtained from two donors from Massachusetts General Hospital, namely MGH54 and MGH63, and one donor from Lonza, namely HUM4111B. Cryopreserved hepatocytes were cultured in plating media for 16 hours, transferred to maintenance media for 4 hours. Cultured on serum-free media for 2 hours, then a compound was added. The hepatocytes were maintained on the serum-free media for 16 hours prior to gene expression analysis. Primary human hepatocytes were stored in the vapor phase of a liquid nitrogen freezer (about -130° C.). Human hepatocytes cultured as described above were plated in 24-well format, adding 375,000 cells per well in a volume of 500 ul plating medium. Four hours before treatment, cells were washed with PBS and the medium was changed to either: fresh maintenance medium (complete) or modified maintenance medium. Compound stocks were prepared at 1000× final concentration and added in a 2-step dilution to the medium to reduce risk of a compound precipitating out of solution when added to the cells, and to ensure reasonable pipetting volumes. […] The plate was mixed by carefully swirling and after all wells were treated and returned to the incubator overnight. If desired, separate plates/wells were treated with vehicle-only controls and/or positive controls. If using multi-well plates, controls were included on each plate. After about 18 hours, cells were harvested for further analysis, e.g., ChIP-seq, RNA-seq, ATAC-seq, etc. This protocol is a modified version of the following protocols: MagMAX mirVana Total RNA Isolation Kit User Guide (Applied Biosystems #MAN0011131 Rev B.0), NEBNext Poly(A) mRNA Magnetic Isolation Module ([…]), and NEBNext Ultra Directional RNA Library Prep Kit for Illumina ([…]) (New England Biosystems #E74901). […] Two hundred μl of Lysis Binding Mix was used per well of the multiwell plate containing adherent cells (usually a 24-well plate). For mRNA isolation and library prep, the NEBNext Poly(A) mRNA Magnetic Isolation Module and Directional Prep kit was used. RNA isolated from cells above was quantified, and prepared in […] of each sample in 50 μl of nuclease-free water. This protocol may be run in microfuge tubes or in a 96-well plate. […] Genomic alignments were converted to transcriptome alignments based on reference transcript annotations from the Human GENCODE Gene Set release 24 (Harrow et al., Genome Res. […] Using unique and multimapped transcriptomic alignments, gene-level abundance estimates were computed using RSEM version 1.3.0 (Li and Dewey, BMC Bioinformatics (2011) 12:323) in a strand-aware manner, and including confidence interval sampling calculations, to arrive at posterior mean estimates (PME) of abundances (counts and normalized FPKM-fragments per kilobase of exon per million mapped fragments) from the underlying Bayesian model. Standard QC were applied (read integrity, mapping statistics, library complexity, fragment bias) to remove unsatisfactory samples. Differential gene expression was computed using the negative binomial model implemented by DESeq2 version 1.16.1 (Love et al., Genome Biol. (2014) 15(12):550). […] RNA-seq signals were also normalized by read depth and visualized using the UCSC browser. To identify small molecules that modulate target gene expression, primary human hepatocytes were prepared as a monoculture, and at least one small molecule compound was applied to the cells. RNA-seq was performed to determine the effects of the compounds on the expression of the target genes in hepatocytes. Fold change was calculated by dividing the level of expression in the cell system that had been perturbed by the level of expression in an unperturbed system.

JAG1 = assay: RNA-seq of JAG1 expression in compound-treated primary human hepatocytes; type: cell-based; conditions: for JAG1 Fold Change (Log2): primary human hepatocytes; for Significant modulation of JAG1 (in words): summary of Table 6
Summary of the method: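 Cryopreserved primary human hepatocytes from three donors, switched to serum-free medium 2 h before compound addition, were harvested about 18 h after treatment. Poly(A) mRNA was sequenced and aligned to GENCODE release 24, with DESeq2 negative binomial differential expression. Fold change is the treated level over the unperturbed level.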

S=C(NCc1ccc2c(c1)OCO2)N1CCN(c2ncnc3c2oc2ccccc23)CC1 [Amuvatinib]
SERPINC1 Fold Change (Log2) (SERPINC1): 1.33 Log2 | JAG1 Fold Change (Log2) (JAG1): 0.74 Log2 | Significant modulation of JAG1 (in words) (JAG1): significantly modulate only JAG1

O=C1CCC(N2C(=O)c3ccccc3C2=O)C(=O)N1 (stereo not drawn) [Thalidomide]
SERPINC1 Fold Change (Log2) (SERPINC1): 0.88 Log2 | JAG1 Fold Change (Log2) (JAG1): 1.30 Log2 | Significant modulation of JAG1 (in words) (JAG1): significantly modulate only JAG1
